Earlier results, collected in US20240165053A1, “Topical Medicament for Use in Treatment of Anorectal Inflammation” (priority 2022, published 2024).

Test system: swollen hemorrhoids

Compound: OC[C@H]1O[C@@](CO)(O[C@H]2O[C@H](CO)[C@@H](O)[C@H](O)[C@H]2O)[C@@H](O)[C@@H]1O [granulated sugar, Sucrose]
- time of application after which the difference is noticeable with the naked eye (topical application on prolapsed hemorrhoids): 10 min
- edema reduction of swollen hemorrhoids (topical application, medical studies): immediate edema reduction
